Legend:
rats = assay: Reversal of the effect of the mGluR2 PAM JNJ-42153605 on scopolamine-induced hyperlocomotion; type: in vivo; settings: Rattus norvegicus, 1 h, test compound 60 min before recording, criterion total distance >1500 cm
Procedure: 2) Reversal of the Effect of the mGluR2 PAM JNJ-42153605 on Scopolamine-Induced Hyperlocomotion Apparatus
Motor activity was measured in microprocessor-based motor activity arenas (closed gray PVC cylinders with a height of 39 cm and a diameter of 31 cm). Each arena was placed on an infrared LED (8×8 LEDs) lit box (white PVC squared box; 40×40 cm^2; height 12.5 cm. An infrared-sensitive tube camera and a white light source were mounted to the ceiling above the observation chamber to track the animal. The total distance traveled (cm) was recorded and analyzed using the Noldus Ethovision XT Video Tracking System (Version 7.0.418; Noldus, Wageningen, The Netherlands). The intensity of the light within the activity cages (measured in the centre at the level of the floor) ranged between 4 and 8 LUX.
The rats were pretreated with test compound or vehicle at 60 min before the start of the activity recordings and placed into individual cages. The rats were challenged with JNJ-42153605 (3-(cyclopropylmethyl)-7-(4-phenylpiperidin-1-yl)-8-(trifluoromethyl)[1,2,4]triazolo[4,3-a]pyridine; WO2010/130424; Cid et al. J. Med. Chem. 2012, 55, 8770-8789) (20 mg/kg, i.v.) 30 min before the start of the activity recording combined with scopolamine (0.16 mg/kg, i.v.) just before the start of the activity measurements Immediately after the injection of scopolamine, the rats were placed into the activity monitors and total distance travelled over the first 30 min was measured.
Animals receiving the combination of JNJ-42153605 and scopolamine (n=433) almost always travelled a distance of less than 1500 cm (<1500 cm) (only 2.5% of the control rats travelled a distance of more than 1500 cm (>1500 cm)). On the other hand, animals challenged with scopolamine alone (n=215) always travelled a total distance of more than 1500 cm (>1500 cm) and almost always (in 95.8% of the rats) a distance of more than 4400 cm (>4400 cm). […] For reversal of the inhibitory effect of JNJ-42153605 on the scopolamine-induced hyperlocomotion, two all-or-none criteria were adopted: (1) reversal: total distance >1500 cm; (2) normalization: total distance >4400 cm.

human mGlu2 receptor = target: T1, human mGlu2 receptor (Homo sapiens, UniProt Q14416); assay: [35S]GTPγS binding assay (mGluR2 negative allosteric modulation); type: biochemical; settings: for IC50: read-out: GTPγS - hmGluR2 anGT pIC50 (converted); for Emax: relative maximal effect: maximal % inhibition relative to the control glutamate response, read-out: GTPγS - hmGluR2 anGT Emax
T1 construct: expressed in transfected cells; host or cells: CHO cells (membrane preparation)
In short: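 Membranes from butyrate-stimulated CHO cells expressing human mGlu2; 7 μg protein in HEPES pH 7.4, 100 mM NaCl, 3 mM MgCl2, 10 μM GDP, 10 μg/ml saponin. Compound tested against EC80-equivalent glutamate; 0.1 nM [35S]GTPγS, 30 min, 30 °C; filtration, scintillation counting. Data as % of control glutamate response.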

[1] = membranes from CHO cells transfected with human mGlu2 receptor, glutamate 60 μM, pIC50 = −log IC50 (M)

T1 sequence (Q14416 19-872): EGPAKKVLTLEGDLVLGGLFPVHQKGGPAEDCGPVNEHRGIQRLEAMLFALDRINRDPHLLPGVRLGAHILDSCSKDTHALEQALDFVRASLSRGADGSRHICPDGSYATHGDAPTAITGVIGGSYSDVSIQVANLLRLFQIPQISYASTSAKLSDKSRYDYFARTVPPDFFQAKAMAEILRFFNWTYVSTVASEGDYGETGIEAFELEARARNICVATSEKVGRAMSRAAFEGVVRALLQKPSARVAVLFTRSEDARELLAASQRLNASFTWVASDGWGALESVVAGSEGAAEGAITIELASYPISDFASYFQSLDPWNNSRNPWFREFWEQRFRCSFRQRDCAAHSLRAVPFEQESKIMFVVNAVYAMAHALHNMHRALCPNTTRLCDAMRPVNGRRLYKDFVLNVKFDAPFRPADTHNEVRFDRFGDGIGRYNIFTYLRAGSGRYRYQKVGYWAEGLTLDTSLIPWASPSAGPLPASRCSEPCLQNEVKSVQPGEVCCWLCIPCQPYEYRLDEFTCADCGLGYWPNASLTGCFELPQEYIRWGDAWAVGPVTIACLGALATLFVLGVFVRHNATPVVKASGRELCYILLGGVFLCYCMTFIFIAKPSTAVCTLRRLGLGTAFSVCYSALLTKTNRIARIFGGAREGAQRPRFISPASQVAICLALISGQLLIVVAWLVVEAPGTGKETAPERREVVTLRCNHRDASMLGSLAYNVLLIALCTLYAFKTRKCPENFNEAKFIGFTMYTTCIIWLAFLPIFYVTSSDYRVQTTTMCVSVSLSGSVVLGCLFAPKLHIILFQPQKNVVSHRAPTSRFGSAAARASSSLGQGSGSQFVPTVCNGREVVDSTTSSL

Structure (SMILES) | IC50 (human mGlu2 receptor; [1]) [M] | Emax (human mGlu2 receptor) [%] | GTPγS - hmGluR2 anGT pIC50 (human mGlu2 receptor; [1]) | melting point | ED50 (rats; Route PO) [mg/kg] | ED50 (rats; Route SC) [mg/kg]
COc1cc(-c2cnn3c2C(=O)N(c2ccc(C(F)(F)F)c(Cl)c2)C[C@@H]3C)ccn1 [compound 104] | 3.72e-09 | 108 | – | – | ≥ 2.5 | –
Cc1cc(-c2cnn3c2C(=O)N(c2cccc(Cl)c2)C[C@@H]3C)ccn1 [compound 16] | 5.13e-08 | 102 | – | – | – | ≥ 10
CCNc1cc(-c2cnn3c2C(=O)N(c2ccc(C(F)(F)F)c(C)c2)C[C@@H]3C)ccn1 [compound 256] | 3.63e-09 | 108 | – | – | ≥ 2.5 | –
C[C@H]1CN(c2ccc(C(F)(F)F)c(Cl)c2)C(=O)c2c(-c3ccnc(C#N)c3)cnn21 [compound 100] | – | 109 | 8.16 | 144.9 °C | > 10 | –
CNc1cc(-c2cnn3c2C(=O)N(c2ccc(C(F)(F)F)c(F)c2)C[C@@H]3C)ccn1 [compound 182] | 8.32e-09 | 106 | – | 67.8 °C | 1.99 | –
Cc1cc(-c2cnn3c2C(=O)N(c2ccc(Cl)c(Cl)c2)C[C@@H]3C)ccn1 [compound 6] | 5.01e-09 | 106 | – | – | 0.8 | –
COc1cc(N2C[C@H](C)n3ncc(-c4ccnc(C)c4)c3C2=O)ccc1Cl [compound 19] | 6.92e-08 | 105 | – | 137 °C | ≥ 10 | –
CNc1cc(-c2cnn3c2C(=O)N(c2ccc(C(F)(F)F)c(C)c2)C[C@@H]3C)ccn1 [compound 251] | 6.31e-09 | 116 | – | – | > 0.63 | –
CNc1cc(-c2cnn3c2C(=O)N(c2ccc(C(F)(F)F)c(OC)n2)C[C@@H]3C)ccn1 [compound 237] | 3.16e-09 | 111 | – | 125.82 °C (dec.) | 1.99 | –
CCNc1cc(-c2cnn3c2C(=O)N(c2ccc(Cl)c(Cl)c2)C[C@@H]3C)ccn1 [compound 257] | 3.63e-09 | 108 | – | – | ≥ 2.5 | –
CNc1cc(-c2cnn3c2C(=O)N(c2ccc(C(F)(F)F)c(Cl)c2)C[C@@H]3C)cc(C#N)n1 [compound 95] | 1.78e-09 | 110 | – | 210.61 °C (dec.) | > 2.5 | –
CCOc1cc(N2C[C@H](C)n3ncc(-c4ccnc(C)c4)c3C2=O)ccc1Cl [compound 18] | 5.25e-08 | 102 | – | 98.5 °C | ≥ 10 | –
COc1cc(N2C[C@H](C)n3ncc(-c4ccnc(C)c4)c3C2=O)ccc1C(F)(F)F [compound 12] | 1.95e-08 | 104 | – | – | 1.25 | –
Cc1cc(-c2cnn3c2C(=O)N(c2ccc(C(F)(F)F)c(Cl)c2)C[C@@H]3C)cc(C)n1 [compound 43] | 2.88e-09 | 107 | – | – | 1.26 | –
Cc1cc(-c2cnn3c2C(=O)N(c2ccc(Cl)c(Cl)c2)C[C@@H]3C)cc(C)n1 [compound 47] | 6.46e-09 | 105 | – | – | 1.99 | –
CNc1cc(-c2cnn3c2C(=O)N(c2ccc(C(F)(F)F)c(Cl)c2)C[C@@H]3C)ccn1 [compound 103] | – | – | – | – | 0.96 | –
Cc1cc(N2C[C@H](C)n3ncc(-c4ccnc(NC(C)C)c4)c3C2=O)ccc1C(F)(F)F [compound 267] | 2.24e-08 | 107 | – | 131.3 °C | – | –
Cc1cc(-c2cnn3c2C(=O)N(c2cc(Cl)c(C(F)(F)F)cn2)C[C@@H]3C)ccn1 [compound 204, (7S)-5-[4-Chloro-5-(trifluoromethyl)-2-pyridyl]-7-methyl-3-(2-methyl-4-pyridyl)-6,7-dihydropyrazolo[1,5-a]pyrazin-4-one] | 4.9e-09 | 107 | – | 292.8 °C | – | –
COc1cc(-c2cnn3c2C(=O)N(c2ccc(Cl)c(Cl)c2)C[C@@H]3C)ccn1 [compound 142] | 6.61e-09 | 105 | – | – | 1.99 | –
CCOc1cc(N2CC(CO)n3ncc(-c4ccnc(C)c4)c3C2=O)ccc1C(F)(F)F (centres unmarked) [compound 74] | 2.14e-07 | 100 | – | 99.1 °C | – | –
CNc1cc(-c2cnn3c2C(=O)N(c2ccc(C(F)(F)F)c(OC)c2)C[C@@H]3C)ccn1 [compound 183] | 2.29e-08 | 103 | – | 125.6 °C | – | –
C[C@H]1CN(c2ccc(Cl)c(Cl)c2)C(=O)c2c(-c3ccnc(F)c3)cnn21 [compound 164] | 5.5e-09 | 107 | – | 170.3 °C | – | –
Cc1cc(-c2cnn3c2C(=O)N(c2cc(Cl)cc(Cl)c2)C[C@@H]3C)ccn1 [compound 159] | 1.35e-08 | 104 | – | 71.5 °C | – | –
COCC1CN(c2ccc(Cl)c(Cl)c2)C(=O)c2c(-c3ccnc(C)c3)cnn21 (centres unmarked) [compound 143] | 2.45e-08 | 104 | – | > 300 °C | – | –
Cc1cc(-c2cnn3c2C(=O)N(c2ccc(C(F)(F)F)c(F)c2)C[C@@H]3C)cc(C)n1 [compound 61] | 2.82e-08 | 106 | – | 73.3 °C | – | –
CCNc1cc(-c2cnn3c2C(=O)N(c2ccc(C(F)(F)F)c(Cl)c2)C[C@@H]3C)ccn1 [compound 255] | 1.51e-09 | 107 | – | – | 0.79 | –

More lines, main results first:

IC50 (human mGlu2 receptor; [1]) [M] | Emax (human mGlu2 receptor) [%] | GTPγS - hmGluR2 anGT pIC50 (human mGlu2 receptor; [1]) | melting point | Structure (SMILES) | ED50 (rats; Route PO) [mg/kg] | ED50 (rats; Route SC) [mg/kg]
2.4e-08 | 104 | – | – | Cc1cc(-c2cnn3c2C(=O)N(c2ccc(C(F)(F)F)cc2)C[C@@H]3C)cc(C)n1 [compound 14] | 5 | –
7.24e-09 | 105 | – | – | Cc1cc(-c2cnn3c2C(=O)N(c2ccc(SC(F)(F)F)cc2)C[C@@H]3C)ccn1 [compound 236] | > 2.5 | –
1.78e-09 | 106 | – | – | Cc1cc(-c2cnn3c2C(=O)N(c2ccc(C(F)(F)F)c(Cl)c2)C[C@@H]3C)ccn1 [compound 3] | 1.99 | –
8.32e-09 | 107 | – | 129.8 °C | C[C@H]1CN(c2ccc(C(F)(F)F)cc2)C(=O)c2c(-c3ccnc(N4CCC4)c3)cnn21 [compound 102] | ≥ 2.5 | –
1.86e-08 | 105 | – | 57.5 °C | COc1cc(-c2cnn3c2C(=O)N(c2ccc(C(F)(F)F)cc2)C[C@@H]3C)cc(C)n1 [compound 145] | – | –
1.26e-06 | 102 | – | 93 °C | CC(=O)N1CC(c2ccc(-c3cnn4c3C(=O)N(c3ccc(C(F)(F)F)cc3)C[C@@H]4C)cn2)C1 [compound 235] | – | –
1.17e-08 | 104 | – | – | Cc1cc(-c2cnn3c2C(=O)N(c2ccc(C(F)(F)F)c(F)c2)C[C@@H]3C)ccn1 [compound 10] | 0.79 | –
9.77e-08 | 103 | – | 218.9 °C | C[C@H]1CN(c2ccc(C(F)(F)F)cc2)C(=O)c2c(-c3ccnc(N)c3)cnn21 [compound 71, (7S)-3-(2-Aminopyridin-4-yl)-7-methyl-5-[4-(trifluoromethyl)phenyl]-6,7-dihydropyrazolo[1,5-a]pyrazin-4(5H)-one] | – | –
2.34e-08 | 105 | – | 125.66 °C (dec.) | CNc1cc(-c2cnn3c2C(=O)N(c2ccc(C(F)(F)F)cn2)C[C@@H]3C)ccn1 [compound 210] | – | –
3.55e-08 | 103 | – | 154.9 °C | C[C@H]1CN(c2ccc(C(F)(F)F)cc2)C(=O)c2c(-c3ccnc(CF)c3)cnn21 [compound 112] | – | –
1.29e-08 | 110 | – | – | CNc1cc(-c2cnn3c2C(=O)N(c2ccc(C(F)(F)F)cc2)C[C@@H]3C)cc(OC)n1 [compound 242] | > 2.5 | –
5.75e-09 | 108 | – | 70.5 °C | CC(C)c1cc(-c2cnn3c2C(=O)N(c2ccc(C(F)(F)F)cc2)C[C@@H]3C)ccn1 [compound 126, (7S)-3-(2-Isopropyl-4-pyridyl)-7-methyl-5-[4-(trifluoromethyl)phenyl]-6,7-dihydropyrazolo[1,5-a]pyrazin-4-one] | – | –

From patent publication US10106542B2, “Substituted 6,7-dihydropyrazolo[1,5-a]pyrazines as negative allosteric modulators of mGluR2 receptors” (Janssen Pharmaceutica NV, priority 2013, dated 2018)
